Where two headings read alike, the source gives them in different places. Each block holds one compound with its values, some of them ahead of it.
Columns and labels:
[1] = NGI cascade impactor test, active dry powder inhaler with piezoelectric vibrator; assay type: physicochemical; conditions: NGI approx. 30 L/min for 2 seconds
Source text: The inhaler device included injection molded plastic components, electronics, a battery, and drug filled blisters. The inhaler included a lever arm, upon actuation of which the blister was placed in contact with a piezoelectric vibrator within the device and then pierced by needles. The inhaler also included an airflow sensor which automatically turned on the piezoelectric vibrator after a minimum inspiratory flow rate was exceeded. Activation of the piezoelectric vibrator […] powder particles and aerosolized them out of the blister and into the inspiratory airstream. The inhaler included visual feedback at the start of dosing and as confirmation of successful completion of dosing, thereby facilitating improved patient compliance. […] A blend containing disodium cromoglycate (DSCG) (Cambrex) and lactose monohydrate (DFE Pharma) (grade: lactohale LH201) was prepared by blending at a speed of 150 rpm for 15 minutes. The blend contained 60:40 (wt/wt.) DSCG:lactose. Neat DSCG also was tested.

[2] = NGI cascade impactor test, single-use passive dry powder inhaler ([…], Aespira); assay type: physicochemical; conditions: NGI approx. 100 L/min for 2.4 seconds
Procedure: Delivery of cromolyn by a single-use passive dry powder inhaler device was assessed. The passive inhaler device included an active particle dispersion mechanism ([…]) involving breath-driven beating of a mesh package containing the powder to be delivered. A blend containing disodium cromoglycate (DSCG) (Cambrex) and Lactohale LH300 lactose (Friesland Foods Domo) was prepared by blending in an Alpine Picoline high shear mixer (module Picomix) (Hosokawa Alpine, Augsburg, Germany) at a speed of 4000 rpm for 3 minutes. The blend contained 80:20 (wt/wt.) DSCG:lactose. Neat DSCG also was tested.

[3] = Phase 1 pharmacokinetic study of inhaled cromolyn, plasma; assay type: in vivo, human; conditions: for Tmax / Vd/F / AUC(0-inf) / Cmax / half-life: human; for half-life: read-out: apparent t1/2 range
[4] = NGI impactor fractions with AZHALER dry powder inhaler; assay type: physicochemical; conditions: per 17.1 mg of API
Source text: AZHALER. […] It is a single-dose device used to deliver the inhalation powder to the patient's lung in form of an aerosol. The inhaler consists of a container, a valve, and a mouthpiece. In this study the low resistance model (80 L airflow resistance) was used. These device reaches a pressure drop of 4 kPa at c.80 L/min, and is suitable for use on a wide range of patient population i.e. including elderly, children and patients with severe respiratory impairment

[5] = Initial characterization of manufactured cromolyn (particle size distribution); assay type: physicochemical
Source text: Cromolyn capsules for inhalation were manufactured by Pharmaterials, Ltd (Reading, UK). […] Therefore, there was a need to use hydrophobic excipient in the powder formulation to improve product performance and stability. Addition of hydrophobic excipient offers inherent resistance of dry powder inhalation formulations to negative effect of moisture to such formulations. Magnesium stearate was chosen as suitable hydrophobic excipient since it is commercially used in dry powder inhaler (DPI) products. […] Lactose monohydrate was additionally used as diluent for this case.

[6] = 17.1 mg single inhaled dose, mean
[7] = 34.2 mg double inhaled dose, mean
[8] = inhaled or intranasal, 17.1 mg, 17.1 mg single inhaled dose, mean
[9] = inhaled or intranasal, 34.2 mg, 34.2 mg double inhaled dose, mean

Fine Particle Dose <5 μm [1]: 2321 µg
Fine Particle Fraction <5 μm [1]: 59 % of delivered dose
Stages 4 to 8 [1]: 2098 µg
Stages 4 to 8 (% of initial dose) [1]: 42 % of initial dose
Fine Particle Dose <5 μm [2]: 430 µg
Fine Particle Dose <5 μm (% of initial dose) [2]: 9 % of initial dose
MMAD [2]: >4 μm
Stages 4 to 8 [2]: 150 µg
Stages 4 to 8 (% of initial dose) [2]: 3 % of initial dose
Structure (SMILES): O=C(O)c1cc(=O)c2c(OCC(O)COc3cccc4oc(C(=O)O)cc(=O)c34)cccc2o1 [DSCG:lactose 100:0, disodium cromoglycate]

Cl/F [3, 6]: 108532.36 mL/h
T0.5 [3, 6]: 1.75 ± 0.9 h
T0.5 ([3]; 17.1 mg single inhaled dose, mean, listed as Cromolyn): 1.75 h
Cl/F ([3]; 17.1 mg, Max): 183363.7 mL/h
T0.5 ([3]; 17.1 mg, Max): 3.7 h
T0.5 ([3]; 17.1 mg, Min): 0.6, h
Cl/F ([3]; 17.1 mg, median): 82640.18 mL/h
T0.5 ([3]; 17.1 mg, median): 1.56 h
Cl/F [3, 7]: 132178.06 mL/h
T0.5 [3, 7]: 1.91 ± 0.7 h
T0.5 ([3]; 34.2 mg double inhaled dose, mean, listed as Cromolyn): 1.91 h
Cl/F ([3]; 34.2 mg, median): 130382.20 mL/h
T0.5 ([3]; 34.2 mg, median): 1.80 h
Tmax [3, 8]: 22.8 min
Vd/F [3, 8]: 137 L
AUC(0-inf) ([3]; inhaled or intranasal, 17.1 mg, 17.1 mg single inhaled dose, mean, read-out: AUC0-inf): 196 ± 97.3 ng·h/mL
Cmax ([3]; inhaled or intranasal, 17.1 mg, 17.1 mg single inhaled dose, mean, read-out: Cmax): 46.7 ng/mL
half-life ([3]; inhaled or intranasal, 17.1 mg): 36 to 222 min
AUC(0-inf) ([3]; inhaled or intranasal, 17.1 mg, single (17.1 mg) dose inhalation, range, read-out: AUC0-inf range): 93.3 to 287 ng·h/mL
Cmax ([3]; inhaled or intranasal, 17.1 mg, single dose (17.1 mg) inhalation, mean ± SD, read-out: average Cmax): 46.7 ± 33 ng/mL
Cmax ([3]; inhaled or intranasal, 17.1 mg, single dose (17.1 mg) inhalation, range, read-out: Cmax range): 14 to 133 ng/mL
Tmax [3, 9]: 22.2 min
Vd/F [3, 9]: 330 L
AUC(0-inf) ([3]; inhaled or intranasal, 34.2 mg, 34.2 mg double inhaled dose, mean, read-out: AUC0-inf): 285 ± 91.3 ng·h/mL
Cmax ([3]; inhaled or intranasal, 34.2 mg, 34.2 mg double inhaled dose, mean, read-out: Cmax): 96.8 ng/mL
AUC(0-inf) ([3]; inhaled or intranasal, 34.2 mg, double (34.2 mg) dose inhalation, range, read-out: AUC0-inf range): 155 to 443 ng·h/mL
Cmax ([3]; inhaled or intranasal, 34.2 mg, double dose (34.2 mg) inhalation, mean ± SD, read-out: average Cmax): 96.8 ± 46.2 ng/mL
Cmax ([3]; inhaled or intranasal, 34.2 mg, double dose (34.2 mg) inhalation, range, read-out: Cmax range): 36.1 to 236 ng/mL
half-life ([3]; inhaled or intranasal, double dose (34.2 mg) inhalation, range): 42 to 228 min
Tmax ([3]; inhaled, 17.1 mg, Max): 60 min
Vd/F ([3]; inhaled, 17.1 mg, Max): 144 L
AUC(0-inf) ([3]; inhaled, 17.1 mg, Max, read-out: AUC0-inf): 287 ng·h/mL
Cmax ([3]; inhaled, 17.1 mg, Max, read-out: Cmax): 133 ng/mL
Tmax ([3]; inhaled, 17.1 mg, Min): 6 min
Vd/F ([3]; inhaled, 17.1 mg, Min): 134 L
AUC(0-inf) ([3]; inhaled, 17.1 mg, Min, read-out: AUC0-inf): 93.3 ng·h/mL
Cmax ([3]; inhaled, 17.1 mg, Min, read-out: Cmax): 14 ng/mL
Tmax ([3]; inhaled, 17.1 mg, median): 15 min
Vd/F ([3]; inhaled, 17.1 mg, median): 134 L
AUC(0-inf) ([3]; inhaled, 17.1 mg, median, read-out: AUC0-inf): 207 ng·h/mL
Cmax ([3]; inhaled, 17.1 mg, median, read-out: Cmax): 36.2 ng/mL
Tmax ([3]; inhaled, 34.2 mg, median): 13.8 min
Vd/F ([3]; inhaled, 34.2 mg, median): 264 L
AUC(0-inf) ([3]; inhaled, 34.2 mg, median, read-out: AUC0-inf): 262 ng·h/mL
Cmax ([3]; inhaled, 34.2 mg, median, read-out: Cmax): 76.5 ng/mL
cromolyn in the impactor fractions with <3 micron size particles (NGI stage 4-MOC) [4]: 4 to 5 mg
initial characterization of the material ([5]; manufactured cromolyn): crystalline and hygroscopic material
particle size distribution d50 ([5]; micronized cromolyn): < 5 μm
particle size distribution d90 ([5]; micronized cromolyn): < 10 μm
Structure (SMILES): O=C(O)c1cc(=O)c2c(OCC(O)COc3cccc4oc(C(=O)O)cc(=O)c34)cccc2o1 [cromolyn, 5,5′-(2-hydroxypropane-1,3-diyl)bis(oxy)bis(4-oxo-4H-chromene-2-carboxylic acid)]

From patent US20230248646A1 (The General Hospital Corporation, priority 2013, published 2023)
